We go through ten compounds from ChEMBL document CHEMBL1132089, “Probing the role of interfacial residues in a dimerization inhibitor of HIV-1 protease” (Bioorg Med Chem Lett, 1999).

Where a SMILES comes first, the peptide text is derived from it. Bridges are numbered along the chain shown (N, C = ends). Roman numbers before positions name the chains, in order. The star is where a group is joined. C16 diacid = O=C(O)CCCCCCCCCCCCCCC(=O)*

The target in this assay is Human immunodeficiency virus type 1 protease (Human immunodeficiency virus 1) (UniProt Q72874). In words: Percent inhibition of HIV-1 protease at a concentration level of 25 nM relative to compound I was determined by UV absorbance.
A word on the inhibition: it is the percentage by which the read-out fell short of the control. The low end stands for a weak effect, the high end for a strong effect. As for `CC[C@H](C)[C@H](NC(=O)[C@H](CCC(N)=O)NC(=O)[C@@H]1CCCN1C(=O)CCCCCCCCCCCCCCC(=O)N[C@@H](CO)C(=O)N[C@@H](C)C(=O)N[C@@H](CC(C)C)C(=O)N[C@@H](CC(N)=O)C(=O)N[C@@H](Cc1ccccc1)C(=O)O)C(=O)N[C@H](C(=O)N[C@@H](CC(C)C)C(=O)N[C@@H](Cc1c[nH]c2ccccc12)C(=O)O)[C@@H](C)O` (I: PQITLW-OH / II: SALNF-OH; linker I:N-II:N via C16 diacid), the inhibition was 3.3%.

In the case of `CC[C@H](C)[C@H](NC(=O)[C@H](CCC(N)=O)NC(=O)[C@@H]1CCCN1C(=O)CCCCCCCCCCCCCCC(=O)N[C@@H](CO)C(=O)N[C@H](C(=O)N[C@@H](C)C(=O)N[C@@H](CC(N)=O)C(=O)N[C@@H](Cc1ccccc1)C(=O)O)[C@H](C)O)C(=O)N[C@H](C(=O)N[C@@H](CC(C)C)C(=O)N[C@@H](Cc1c[nH]c2ccccc12)C(=O)O)[C@@H](C)O`, the inhibition came out at 4.5%.

In turn, `CC[C@H](C)[C@H](NC(=O)[C@H](CCC(N)=O)NC(=O)[C@@H]1CCCN1C(=O)CCCCCCCCCCCCCCC(=O)N[C@@H](C)C(=O)N[C@H](C(=O)N[C@@H](CC(C)C)C(=O)N[C@@H](CC(N)=O)C(=O)N[C@@H](Cc1ccccc1)C(=O)O)[C@H](C)O)C(=O)N[C@H](C(=O)N[C@@H](CC(C)C)C(=O)N[C@@H](Cc1c[nH]c2ccccc12)C(=O)O)[C@@H](C)O` yielded an inhibition of 1.1%.

`CC(C)C[C@H](NC(=O)[C@@H](NC(=O)[C@H](CO)NC(=O)CCCCCCCCCCCCCCC(=O)N1CCC[C@H]1C(=O)N[C@@H](CCC(N)=O)C(=O)N[C@@H](C)C(=O)N[C@H](C(=O)N[C@@H](CC(C)C)C(=O)N[C@@H](Cc1c[nH]c2ccccc12)C(=O)O)[C@@H](C)O)[C@H](C)O)C(=O)N[C@@H](CC(N)=O)C(=O)N[C@@H](Cc1ccccc1)C(=O)O` had an inhibition of 2.7%.

Take `CC[C@H](C)[C@H](NC(=O)[C@H](CCC(N)=O)NC(=O)[C@@H]1CCCN1C(=O)CCCCCCCCCCCCCCC(=O)N[C@@H](CO)C(=O)N[C@H](C(=O)N[C@@H](CC(C)C)C(=O)N[C@@H](CC(N)=O)C(=O)N[C@@H](Cc1ccccc1)C(=O)O)[C@@H](C)O)C(=O)N[C@@H](C)C(=O)N[C@@H](CC(C)C)C(=O)N[C@@H](Cc1c[nH]c2ccccc12)C(=O)O` (I: PQIALW-OH / II: STLNF-OH; linker I:N-II:N via C16 diacid): the inhibition stood at 3.3%.

On to `CC[C@H](C)[C@H](NC(=O)[C@H](CCC(N)=O)NC(=O)[C@@H]1CCCN1C(=O)CCCCCCCCCCCCCCC(=O)N[C@@H](CO)C(=O)N[C@H](C(=O)N[C@@H](CC(C)C)C(=O)N[C@@H](CC(N)=O)C(=O)N[C@@H](Cc1ccccc1)C(=O)O)[C@H](C)O)C(=O)N[C@H](C(=O)N[C@@H](C)C(=O)N[C@@H](Cc1c[nH]c2ccccc12)C(=O)O)[C@@H](C)O`, for which the inhibition is 1.6%.

In turn, `CC[C@H](C)[C@H](NC(=O)[C@H](CCC(N)=O)NC(=O)[C@@H]1CCCN1C(=O)CCCCCCCCCCCCCCC(=O)N[C@@H](CO)C(=O)N[C@H](C(=O)N[C@@H](CC(C)C)C(=O)N[C@@H](CC(N)=O)C(=O)N[C@@H](Cc1ccccc1)C(=O)O)[C@@H](C)O)C(=O)N[C@H](C(=O)N[C@@H](CC(C)C)C(=O)N[C@@H](C)C(=O)O)[C@@H](C)O` (I: PQITLA-OH / II: STLNF-OH; linker I:N-II:N via C16 diacid) returned an inhibition of 26%.

As for `CC[C@H](C)[C@H](NC(=O)[C@H](CCC(N)=O)NC(=O)[C@@H]1CCCN1C(=O)CCCCCCCCCCCCCCC(=O)N[C@@H](CO)C(=O)N[C@H](C(=O)N[C@@H](CC(C)C)C(=O)N[C@@H](C)C(=O)N[C@@H](Cc1ccccc1)C(=O)O)[C@H](C)O)C(=O)N[C@H](C(=O)N[C@@H](CC(C)C)C(=O)N[C@@H](Cc1c[nH]c2ccccc12)C(=O)O)[C@@H](C)O`, the inhibition stood at 1.9%.

`CC[C@H](C)[C@H](NC(=O)[C@H](CCC(N)=O)NC(=O)[C@@H]1CCCN1C(=O)CCCCCCCCCCCCCCC(=O)N[C@@H](CO)C(=O)N[C@H](C(=O)N[C@@H](CC(C)C)C(=O)N[C@@H](CC(N)=O)C(=O)N[C@@H](C)C(=O)O)[C@H](C)O)C(=O)N[C@H](C(=O)N[C@@H](CC(C)C)C(=O)N[C@@H](Cc1c[nH]c2ccccc12)C(=O)O)[C@@H](C)O` had an inhibition of 3.5%.

`CC[C@H](C)[C@H](NC(=O)[C@H](C)NC(=O)[C@@H]1CCCN1C(=O)CCCCCCCCCCCCCCC(=O)N[C@@H](CO)C(=O)N[C@H](C(=O)N[C@@H](CC(C)C)C(=O)N[C@@H](CC(N)=O)C(=O)N[C@@H](Cc1ccccc1)C(=O)O)[C@@H](C)O)C(=O)N[C@H](C(=O)N[C@@H](CC(C)C)C(=O)N[C@@H](Cc1c[nH]c2ccccc12)C(=O)O)[C@@H](C)O` (I: PAITLW-OH / II: STLNF-OH; linker I:N-II:N via C16 diacid) gave an inhibition of 0.8%.
